Data on 22 compounds can be found in patent US10023519B2, “Cyclobutane containing carboxylic acid GPR120 modulators” (BRISTOL-MYERS SQUIBB COMPANY, priority 2014, dated 2018).

Molecules are shown by their SMILES.

human GPR120, sequence (Q5NUL3 whole entry): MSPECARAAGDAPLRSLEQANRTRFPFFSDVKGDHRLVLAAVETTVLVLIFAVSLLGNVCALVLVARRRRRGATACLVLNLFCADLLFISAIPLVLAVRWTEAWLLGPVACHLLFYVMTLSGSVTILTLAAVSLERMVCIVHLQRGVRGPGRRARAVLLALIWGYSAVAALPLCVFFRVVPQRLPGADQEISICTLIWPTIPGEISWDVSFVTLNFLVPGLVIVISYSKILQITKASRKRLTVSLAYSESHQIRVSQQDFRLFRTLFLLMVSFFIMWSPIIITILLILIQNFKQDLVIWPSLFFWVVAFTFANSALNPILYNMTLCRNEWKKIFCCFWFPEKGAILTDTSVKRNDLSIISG

The first assay addresses human GPR120 (Homo sapiens (Human), UniProt Q5NUL3). The experiment in a line: GPR120 pERK AlphaScreen SureFire Assay (human). The following applies: CHO cells stably transfected with short form of human GPR120. The format is cell-based.
Description: GPR120 activity was monitored by measuring phosphorylation of ERK (pERK), since G protein receptors are known to activate the ERK signaling cascade either directly and/or through recruitment of arrestin that serves as a scaffold for downstream signaling events.
GPR120 pERK AlphaScreen SureFire Assay
The human and mouse GPR120-mediated intracellular phosphorylated ERK assays were established using CHOA12 cells stably transfected with the short form of human or mouse GPR120 receptor. […] Cells were cryo preserved at a concentration of 2×10^7 cells/mL, in 90% Charcoal/Dextran FBS and 10% DMSO, and frozen in liquid nitrogen at a low passage number.
The flasks were placed in a tissue culture incubator overnight (37° C., 5% CO2). […] The next day, cells were serum starved in 30 μL of F-12 media without any serum or antibiotics for 2 hours at 37° C.
Cells were then stimulated with 50 nL of compound dilutions using ECHO liquid handler for 7 minutes at 37° C.
(§1) The lysis buffer was diluted 5-fold with water before use. […] The SureFire assay reagent mix was prepared by mixing 60 parts Reaction Buffer, 10 parts Activation Buffer, 1 part Donor Beads, 1 part Acceptor Beads (Perkin Elmer Cat. #TGRES10K). 3.5 μL/well of this reagent mix was manually added to the proxiplate with a multichannel pipettor. Plates were spun down at 1000 rpm for 2 minutes, followed by light-protected incubation at room temperature for 2 hours. The plates were read on the Alpha-technology compatible Envision multilabel plate reader using AlphaScreen protocol according to manufacturer's specifications. The agonist effect of compounds was expressed as 100× (average sample−average blank)/(average total−average blank) where sample is the luminescence activity in the presence of test compound, blank is equal to the luminescence activity in the presence of DMSO control and the total is signal induced by 50 μM linolenic acid as reference compound. Activation data for the test compound over a range of concentrations was plotted as percentage activation of the test compound (100%=maximum response). After correcting for background, EC50 values were determined.
The human and mouse GPR120-mediated intracellular phosphorylated ERK assays were also established using CHO-K1 cells stably transfected with the short form of human or mouse GPR120 receptor. […] Cells were cryo preserved at a concentration of 3×10^6 cells/mL, in 70% F-12, 20% Charcoal/Dextran FBS and 10% DMSO, and frozen in liquid nitrogen at a low passage number.
The flasks were placed in a tissue culture incubator overnight (37° C., 5% CO2).
Cells were then stimulated with 40 nL of compound dilutions using ECHO liquid handler for 7 minutes at 37° C.
as §1, with “compound.” for “compound. Activation data for the test compound over a range of concentrations was plotted as percentage activation of the test compound (100%=maximum response). After correcting for background, EC50 values were determined.”
Activation data for the test compound over a range of concentrations was plotted as percentage activation of the test compound (100%=maximum response). After correcting for background, EC50 values were determined.
Compound `O=C(O)CO[C@H]1C[C@@H](c2ccc(-c3cc(Oc4ccccc4)ccc3F)cc2)C1` [Example 1, Cis-2-(-3-(2′-fluoro-5′-phenoxy-[1,1′-biphenyl]-4-yl)cyclobutoxy)acetic acid] registered an EC50 of 170 nM.
The same measure, in the same setting: to `O=C(O)CO[C@H]1C[C@@H](c2ccc(-c3cc(OC(F)(F)F)ccc3F)cc2)C1` [Example 17, Cis-2-(3-(2′-fluoro-5′-(trifluoromethoxy)-[1,1′-biphenyl]-4-yl)cyclobutoxy)acetic acid] belongs 550 nM.
In the case of `O=C(O)COCC1CC(OCc2cccc(Oc3ccccc3)c2)C1` (centres unmarked) [Example 54, 2-((3-(3-Phenoxybenzyloxy)cyclobutyl)methoxy)acetic acid], the EC50 was 3850 nM.
`Cc1ccc(Oc2ccc(F)c(-c3ccc([C@H]4C[C@@H](OCC(=O)O)C4)cc3)c2)cn1` [Example 20, Cis-2-(3-(2′-fluoro-5′-((6-methylpyridin-3-yl)oxy)-[1,1′-biphenyl]-4-yl)cyclobutoxy) acetic acid] gave a concentration for a half-maximal effect (EC50) of 270 nM.
As for `Cc1ccc(Oc2ccc(F)c(-c3ccc([C@H]4C[C@@H](OCC(=O)O)C4)cc3)c2)cc1` [Example 31, Cis-2-(3-(2′-fluoro-5′-(p-tolyloxy)-[1,1′-biphenyl]-4-yl)cyclobutoxy)acetic acid], the EC50 worked out at 710 nM.
The same measure, in the same setting: to `COc1cc(OC(C)C)cc(-c2ccc([C@H]3C[C@@H](OCC(=O)O)C3)cc2)c1` [Example 19, Cis-2-(3-(3′-isopropoxy-5′-methoxy-[1,1′-biphenyl]-4-yl)cyclobutoxy)acetic acid] belongs 1590 nM; to `O=C(O)CCC[C@H]1C[C@@H](OCc2cccc(Oc3ccccc3)c2)C1` [Example 53, 4-(Cis-3-(3-phenoxybenzyloxy)cyclobutyl)butanoic acid], 430 nM; to `O=C(O)COCCC[C@H]1C[C@@H](OCc2cccc(Oc3ccccc3)c2)C1` [Example 59, 2-(3-(Cis-3-(3-phenoxybenzyloxy)cyclobutyl)propoxy)acetic acid], 520 nM.
On the same count and under the same terms, to `O=C(O)CO[C@H]1C[C@@H](c2ccc(-c3cc(OC4CCCOC4)ccc3F)cc2)C1` (stereo partly drawn) [Example 30, Cis2-(3-(2′-fluoro-5′-((tetrahydro-2H-pyran-3-yl)oxy)-[1,1′-biphenyl]-4-yl)cyclobutoxy)acetic acid] belongs 1400 nM; to `O=C(O)CO[C@H]1C[C@@H](c2ccc(-c3cc(Oc4ccncc4)ccc3F)cc2)C1` [Example 25, Cis-2-(3-(2′-fluoro-5′-(pyridin-4-yloxy)-[1,1′-biphenyl]-4-yl)cyclobutoxy)acetic acid], 1900 nM; to `CC(C)Oc1ccc(F)c(-c2ccc(C=C3CC(C(=O)O)C3)cc2)c1` (centres unmarked) [Example 47, 3-((2′-Fluoro-5′-isopropoxy-[1,1′-biphenyl]-4-yl)methylene)cyclobutanecarboxylic acid], 460 nM.
`CC(C)Oc1cc(Cl)cc(-c2ccc([C@H]3C[C@@H](OCC(=O)O)C3)cc2)c1` [Example 11, Cis-2-(3-(3′-chloro-5′-isopropoxy-[1,1′-biphenyl]-4-yl)cyclobutoxy) acetic acid]: a half-maximal response (EC50) required 560 nM.
Consider `O=C(O)[C@H]1C[C@@H](Oc2ccc(-c3cc(Oc4ccccc4)ccc3F)cc2)C1` [Example 65, Cis-3-((2′-fluoro-5′-phenoxy-[1,1′-biphenyl]-4-yl)oxy)cyclobutanecarboxylic acid], for which the EC50 worked out at 2270 nM. This EC50 lies about 4.1-fold higher than the previous one.
In turn, `C[C@]1(CCCOCC(=O)O)C[C@@H](c2cccc(Oc3ccccc3)c2)C1` [Example 60, 2-(3-(Cis-1-methyl-3-(3-phenoxyphenyl)cyclobutyl)propoxy)acetic acid] showed an EC50 of 740 nM.
The same measure, in the same setting: to `Cc1ncc(Oc2ccc(F)c(-c3ccc([C@H]4C[C@@H](OCC(=O)O)C4)cc3)c2)s1` [Example 27, Cis-2-(3-(2′-fluoro-5′-((2-methylthiazol-5-yl)oxy)-[1,1′-biphenyl]-4-yl)cyclobutoxy)acetic acid] belongs 420 nM; to `CC(C)Oc1cccc(-c2ccc([C@H]3C[C@@H](OCC(=O)O)C3)cc2)c1F` [Example 10, Cis-2-(3-(2′-fluoro-3′-isopropoxy-[1,1′-biphenyl]-4-yl)cyclobutoxy) acetic acid], 1020 nM.
Consider `O=C(O)CO[C@H]1C[C@@H](c2ccc(-c3cc(Oc4cccc(F)c4)cc(F)c3F)cc2)C1` [Example 36, Cis-2-(3-(2′,3′-difluoro-5′-(3-fluorophenoxy)-[1,1′-biphenyl]-4-yl)cyclobutoxy) acetic acid], for which it took 130 nM to reach a half-maximal effect (EC50).
On the same count and under the same terms, to `CC(C)Oc1cccc(-c2ccc([C@H]3C[C@@H](OCC(=O)O)C3)cc2)c1` [Example 7, Cis-2-(3-(3′-isopropoxy-[1,1′-biphenyl]-4-yl)cyclobutoxy) acetic acid] belongs 590 nM; to `CC(C)Oc1ccc(F)c(-c2ccc([C@H]3C[C@@H](CC(=O)O)C3)cc2)c1` [Example 45, 2-(Cis-3-(2′-fluoro-5′-isopropoxy-[1,1′-biphenyl]-4-yl)cyclobutyl)acetic acid], 120 nM.
The compound `Cc1ccc(Oc2cc(F)c(F)c(-c3ccc([C@H]4C[C@@H](OCC(=O)O)C4)cc3)c2)cc1` [Example 38, Cis-2-(3-(2′,3′-difluoro-5′-(p-tolyloxy)-[1,1′-biphenyl]-4-yl)cyclobutoxy)acetic acid] returned an EC50 of 540 nM.
Same read-out and setting: to `CC(C)Oc1ccc(F)c(-c2ccc([C@H]3C[C@@H](OCC(=O)O)C3)cc2)c1` [Example 2, Cis-2-(3-(2′-fluoro-5′-isopropoxy-[1,1′-biphenyl]-4-yl)cyclobutoxy)acetic acid] belongs 530 nM; to `O=C(O)C[C@H]1C[C@H](Oc2ccc(-c3cc(Oc4ccccc4)ccc3F)cc2)C1` [Example 66, Trans-2-(3-((2′-fluoro-5′-phenoxy-[1,1′-biphenyl]-4-yl)oxy)cyclobutyl)acetic acid], 110 nM.

Another assay relates to C57BL/6 mice. Briefly: Acute Oral Glucose Tolerance Test. The format is in vivo, mouse. The following applies: dosed at 30 mg/kg orally 60 min before glucose challenge (2 g/kg), AUC t=0-120 min compared to vehicle. As to the method: In Vivo GPR120 Assays 1) Acute Oral Glucose Tolerance Test
C57BL/6 mice were housed individually and fed a standard rodent chow diet. At approximately 11 weeks age, after a 5 h fast, these mice were orally treated with vehicle or test compounds 60 min before a glucose challenge (2 g/kg). Blood glucose levels were determined from tail bleeds taken at −60, 0, 15, 30, 60 and 120 min after the glucose challenge. […] This AUC for compound treatment is compared to vehicle treatment.
`O=C(O)CO[C@H]1C[C@@H](c2ccc(-c3cc(Oc4ccccc4)ccc3F)cc2)C1` [Example 1, Cis-2-(-3-(2′-fluoro-5′-phenoxy-[1,1′-biphenyl]-4-yl)cyclobutoxy)acetic acid]: the “reduced glucose AUC” value was 42%.
